Biological target: T1, MLLT1 (Homo sapiens, UniProt Q03111)
T1 construct: host or cells: MV4-11
T1 sequence (Q03111 1-559): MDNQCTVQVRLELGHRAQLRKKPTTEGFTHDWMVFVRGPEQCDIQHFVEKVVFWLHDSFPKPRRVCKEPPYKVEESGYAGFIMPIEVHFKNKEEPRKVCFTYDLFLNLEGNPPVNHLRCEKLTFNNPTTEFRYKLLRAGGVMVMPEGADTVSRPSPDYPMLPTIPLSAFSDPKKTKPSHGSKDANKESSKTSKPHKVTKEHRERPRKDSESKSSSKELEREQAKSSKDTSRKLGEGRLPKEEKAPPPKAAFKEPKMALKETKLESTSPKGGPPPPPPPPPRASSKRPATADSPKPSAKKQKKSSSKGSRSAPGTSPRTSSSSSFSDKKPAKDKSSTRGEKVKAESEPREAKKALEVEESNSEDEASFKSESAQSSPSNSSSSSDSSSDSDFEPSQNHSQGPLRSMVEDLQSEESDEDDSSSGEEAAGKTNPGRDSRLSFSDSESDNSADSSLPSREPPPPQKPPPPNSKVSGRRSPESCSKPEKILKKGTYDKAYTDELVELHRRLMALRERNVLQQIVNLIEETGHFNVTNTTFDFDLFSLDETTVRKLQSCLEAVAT
Assay: MLLT1 degradation assay in MV4-11 cells (JESS chemiluminescent detection), three concentrations, 24 h
Format: cell-based
Conditions: with respect to DMSO control
Procedure, shortened: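 Read-out is % MLLT1 degradation versus DMSO, from band peak areas on a JESS chemiluminescent system. Cells (MV4-11) were exposed for 24 h at 37° C to three compound levels, 10, 100 and 1000 nM, in 0.1% DMSO.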

Structure (SMILES) | MLLT1% Degradation @ 0.01 μM | MLLT1% Degradation @ 0.1 μM | MLLT1% Degradation @ 1 μM
Cc1cc(OC2CCN(c3ccc(C(=O)Nc4cc5[nH]c([C@H]6CCCN6C)cc5cn4)c(F)c3)CC2)ccc1-c1cccc2c1CN(C1CCC(=O)NC1=O)C2=O (stereo partly drawn) [Example 203, 4-(4-(4-(2-(2,6-dioxopiperidin-3-yl)-1-oxoisoindolin-4-yl)-3-methylphenoxy)piperidin-1-yl)-2-fluoro-N-(2-((R)-1-methylpyrrolidin-2-yl)-1H-pyrrolo[3,2-c]pyridin-6-yl)benzamide] | C (Category C: 25% ≤ C < 50% degradation) | C (Category C: 25% ≤ C < 50% degradation) | B (Category B: 50% ≤ B < 75% degradation)
Cc1cc(OCCC2CCN(c3cccc4c3CN(C3CCC(=O)NC3=O)C4=O)CC2)ccc1C(=O)Nc1cc2[nH]c([C@H]3CCCN3C)cc2cn1 (stereo partly drawn) [Example 204, 4-(2-(1-(2-(2,6-dioxopiperidin-3-yl)-1-oxoisoindolin-4-yl)piperidin-4-yl)ethoxy)-2-methyl-N-(2-((R)-1-methylpyrrolidin-2-yl)-1H-pyrrolo[3,2-c]pyridin-6-yl)benzamide] | C (Category C: 25% ≤ C < 50% degradation) | B (Category B: 50% ≤ B < 75% degradation) | B (Category B: 50% ≤ B < 75% degradation)
CN1CCC[C@@H]1c1cc2cnc(NC(=O)c3ccc(OCCC4CCN(c5cccc6c5CN(C5CCC(=O)NC5=O)C6=O)CC4)cc3Cl)cc2[nH]1 (stereo partly drawn) [Example 205, 2-chloro-4-(2-(1-(2-(2,6-dioxopiperidin-3-yl)-1-oxoisoindolin-4-yl)piperidin-4-yl)ethoxy)-N-(2-((R)-1-methylpyrrolidin-2-yl)-1H-pyrrolo[3,2-c]pyridin-6-yl)benzamide] | B (Category B: 50% ≤ B < 75% degradation) | A (Category A: A ≥ 75% degradation) | A (Category A: A ≥ 75% degradation)
Cc1cc(CCOc2ccc(C(=O)Nc3cc4[nH]c([C@H]5CCCN5C)cc4cn3)c(F)c2)ccc1-c1cccc2c1CN(C1CCC(=O)NC1=O)C2=O (stereo partly drawn) [Example 208, 4-(4-(2-(2,6-dioxopiperidin-3-yl)-1-oxoisoindolin-4-yl)-3-methylphenethoxy)-2-fluoro-N-(2-((R)-1-methylpyrrolidin-2-yl)-1H-pyrrolo[3,2-c]pyridin-6-yl)benzamide] | A (Category A: A ≥ 75% degradation) | A (Category A: A ≥ 75% degradation) | A (Category A: A ≥ 75% degradation)
CN1CCC[C@@H]1c1cc2cnc(NC(=O)c3ccc(OCC4CCN(c5cccc6c5CN(C5CCC(=O)NC5=O)C6=O)CC4)cc3F)cc2[nH]1 (stereo partly drawn) [Example 214, 4-((1-(2-(2,6-dioxopiperidin-3-yl)-1-oxoisoindolin-4-yl)piperidin-4-yl)methoxy)-2-fluoro-N-(2-((R)-1-methylpyrrolidin-2-yl)-1H-pyrrolo[3,2-c]pyridin-6-yl)benzamide] | A (Category A: A ≥ 75% degradation) | A (Category A: A ≥ 75% degradation) | A (Category A: A ≥ 75% degradation)
CN1CCC[C@@H]1c1cc2cnc(NC(=O)c3ccc(OCCC4CCN(c5ccc(C(=O)N[C@H]6CCC(=O)NC6=O)c(F)c5)CC4)cc3F)cc2[nH]1 [Example 215, N—((S)-2,6-dioxopiperidin-3-yl)-2-fluoro-4-(4-(2-(3-fluoro-4-((2-((R)-1-methylpyrrolidin-2-yl)-1H-pyrrolo[3,2-c]pyridin-6-yl)carbamoyl)phenoxy)ethyl)piperidin-1-yl)benzamide] | D (Category D: D < 25% degradation) | C (Category C: 25% ≤ C < 50% degradation) | C (Category C: 25% ≤ C < 50% degradation)
CN1CCC[C@@H]1c1cc2cnc(NC(=O)c3ccc(OCCC4CCN(c5cccc6c5C(=O)N(C5CCC(=O)NC5=O)C6=O)CC4)cc3F)cc2[nH]1 (stereo partly drawn) [Example 217, 4-(2-(1-(2-(2,6-dioxopiperidin-3-yl)-1,3-dioxoisoindolin-4-yl)piperidin-4-yl)ethoxy)-2-fluoro-N-(2-((R)-1-methylpyrrolidin-2-yl)-1H-pyrrolo[3,2-c]pyridin-6-yl)benzamide] | C (Category C: 25% ≤ C < 50% degradation) | A (Category A: A ≥ 75% degradation) | A (Category A: A ≥ 75% degradation)
CN1CCC[C@@H]1c1cc2cnc(NC(=O)c3ccc(N4CCC(c5ccc(-c6cccc7c6CN(C6CCC(=O)NC6=O)C7=O)cc5)CC4)cc3F)cc2[nH]1 (stereo partly drawn) [Example 218, 4-(4-(4-(2-(2,6-dioxopiperidin-3-yl)-1-oxoisoindolin-4-yl)phenyl)piperidin-1-yl)-2-fluoro-N-(2-((R)-1-methylpyrrolidin-2-yl)-1H-pyrrolo[3,2-c]pyridin-6-yl)benzamide] | C (Category C: 25% ≤ C < 50% degradation) | A (Category A: A ≥ 75% degradation) | B (Category B: 50% ≤ B < 75% degradation)
CN1CCC[C@@H]1c1cc2cnc(NC(=O)c3ccc(CCCC#Cc4cccc(C(=O)N[C@H]5CCC(=O)NC5=O)c4F)cc3)cc2[nH]1 [Example 219, N—((S)-2,6-dioxopiperidin-3-yl)-2-fluoro-3-(5-(4-((2-((R)-1-methylpyrrolidin-2-yl)-1H-pyrrolo[3,2-c]pyridin-6-yl)carbamoyl)phenyl)pent-1-yn-1-yl)benzamide] | A (Category A: A ≥ 75% degradation) | A (Category A: A ≥ 75% degradation) | B (Category B: 50% ≤ B < 75% degradation)
CN1CCC[C@@H]1c1cc2cnc(NC(=O)c3cccc(N4CCN(CC5CCN(c6ccc7c(c6)C(=O)N(C6CCC(=O)NC6=O)C7=O)CC5)CC4)c3)cc2[nH]1 (stereo partly drawn) [Example 220, 3-(4-((1-(2-(2,6-dioxopiperidin-3-yl)-1,3-dioxoisoindolin-5-yl)piperidin-4-yl)methyl)piperazin-1-yl)-N-(2-((R)-1-methylpyrrolidin-2-yl)-1H-pyrrolo[3,2-c]pyridin-6-yl)benzamide] | D (Category D: D < 25% degradation) | C (Category C: 25% ≤ C < 50% degradation) | B (Category B: 50% ≤ B < 75% degradation)
CN1CCC[C@@H]1c1cc2cnc(NC(=O)c3ccc(N4CCN(CC5CCN(c6ccc7c(c6)C(=O)N(C6CCC(=O)NC6=O)C7=O)CC5)CC4)cc3)cc2[nH]1 (stereo partly drawn) [Example 221, 4-(4-((1-(2-(2,6-dioxopiperidin-3-yl)-1,3-dioxoisoindolin-5-yl)piperidin-4-yl)methyl)piperazin-1-yl)-N-(2-((R)-1-methylpyrrolidin-2-yl)-1H-pyrrolo[3,2-c]pyridin-6-yl)benzamide] | C (Category C: 25% ≤ C < 50% degradation) | B (Category B: 50% ≤ B < 75% degradation) | B (Category B: 50% ≤ B < 75% degradation)
CN1CCC[C@@H]1c1cc2cnc(NC(=O)c3ccc(N4CCN(CC5CCN(c6ccc7c(c6)CN(C6CCC(=O)NC6=O)C7=O)CC5)CC4)cc3)cc2[nH]1 (stereo partly drawn) [Example 222, 4-(4-((1-(2-(2,6-dioxopiperidin-3-yl)-1-oxoisoindolin-5-yl)piperidin-4-yl)methyl)piperazin-1-yl)-N-(2-((R)-1-methylpyrrolidin-2-yl)-1H-pyrrolo[3,2-c]pyridin-6-yl)benzamide] | C (Category C: 25% ≤ C < 50% degradation) | B (Category B: 50% ≤ B < 75% degradation) | B (Category B: 50% ≤ B < 75% degradation)
CN1CCC[C@@H]1c1cc2cnc(NC(=O)c3ccc(CCCCC#Cc4ccc5c(c4)CN(C4CCC(=O)NC4=O)C5=O)cc3F)cc2[nH]1 (stereo partly drawn) [Example 223, 4-(6-(2-(2,6-dioxopiperidin-3-yl)-1-oxoisoindolin-5-yl)hex-5-yn-1-yl)-2-fluoro-N-(2-((R)-1-methylpyrrolidin-2-yl)-1H-pyrrolo[3,2-c]pyridin-6-yl)benzamide] | D (Category D: D < 25% degradation) | C (Category C: 25% ≤ C < 50% degradation) | D (Category D: D < 25% degradation)
CN1CCC[C@@H]1c1cc2cnc(NC(=O)c3ccc(N4CCC(CC#Cc5ccc6c(c5)CN(C5CCC(=O)NC5=O)C6=O)CC4)nc3)cc2[nH]1 (stereo partly drawn) [Example 224, 6-(4-(3-(2-(2,6-dioxopiperidin-3-yl)-1-oxoisoindolin-5-yl)prop-2-yn-1-yl)piperidin-1-yl)-N-(2-((R)-1-methylpyrrolidin-2-yl)-1H-pyrrolo[3,2-c]pyridin-6-yl)nicotinamide] | C (Category C: 25% ≤ C < 50% degradation) | C (Category C: 25% ≤ C < 50% degradation) | C (Category C: 25% ≤ C < 50% degradation)

From patent US20260191968A1, “PROTAC DEGRADERS OF MLLT1 AND/OR MLLT3” (DARK BLUE THERAPEUTICS LTD, priority 2024, published 2026)
